Measured values: patent US12441775B2, “BCL-W polypeptides and mimetics for treating or preventing chemotherapy-induced peripheral neuropathy and hearing loss” (Dana-Farber Cancer Institute, Inc., priority 2016, dated 2025)

Columns and labels:
[1] = test system: bclw+/+ and bclw−/− mice; assay: Noxious thermal sensation threshold, 50° C. hot-plate; assay type: in vivo, mouse; conditions: paclitaxel 4 mg/kg every other day for 8 days
Procedure: (§1) Paclitaxel treatment and behavioral testing. 2 month old age-matched bclw−/− and bclw+/+ mice (17-30 g) of either sex were injected intraperitoneally (IP) with 4 mg/kg paclitaxel (Bristol-Myers Squibb) every other day for 8 days (4 total injections). Paclitaxel was prepared as 1 part 6 mg/ml paclitaxel stock solution diluted in vehicle (1:1 v/v Cremophor EL [EMD Millipore] and dehydrated ethanol) and 2 parts sterile saline and injected at 10 μl/g. Control mice were injected with 1 part vehicle and 2 parts saline. […] For three days prior to the baseline testing, mice were weighed, trained on an automated RotaRod apparatus (4 rpm for 1 min without falling), and habituated in von Frey cages. The next two days, baseline behavioral performance was assessed and averaged. The first paclitaxel injection was given three days later, and mice were weighed and behaviorally tested 10 days after the final injection. To assay motor function, mice were placed on the RotaRod with a ramp of 4-40 rpm and 0.4 rpm/sec acceleration, and latency to fall was measured. […] Withdrawal threshold was determined to be the applied force at which the animal withdrew the stimulated paw on at least 2 of 10 applications. […] Mouse behavior was assessed by an experimenter blind to genotype and condition.

[2] = test system: calpain; assay: Calpain protease activity luminescence assay; assay type: cell-based, rat; conditions: DRG neurons treated 48 hours with paclitaxel, normalized to DMSO
Procedure: Calpain protease activity luminescence assay. DRG neurons in mass cultures were treated with vehicle (0.1% DMSO for 48h), paclitaxel (30 nM, 600 nM, or 1.2 μM for 48 hours), or calcium chloride (3 mM for 24 hours). Cultures were harvested in 1× Passive Lysis Buffer (Promega). The resulting lysate was spun 10,000×g for 5 min at 4° C., and 50 μL supernatant was combined with 50 μL Calpain-Glo Reagent (Promega) in a 96 well plate. The plate was shaken briefly and incubated for 40 min in the dark; luminescence intensity was measured with a microplate reader and normalized to protein concentration.

[3] = test system: mice; assay: Accelerating RotaRod motor function test; assay type: in vivo, mouse; conditions: paclitaxel-treated mice, 4 mg/kg every other day for 8 days
Procedure: as §1

[4] = test system: mice; assay: Epidermal footpad innervation (Tuj1-positive intraepidermal nerve fibers); assay type: in vivo, mouse
Procedure: as §1
Epidermal footpad innervation. […] Images were acquired and quantified in NIH ImageJ by an experimenter blind to condition.

[5] = test system: Bclw; assay: qRT-PCR and Western blot of cell body and axon lysate after paclitaxel; assay type: cell-based, rat; conditions: 24 hours paclitaxel to axons; axons vs cell bodies
Procedure: (§2) Cell culture. Compartmented chamber (Campenot) cultures were prepared as described (see, e.g., Fenstermacher et al., Springer Protocols: Neuromethods, 103:105-124 (2015)), with modifications. Briefly, DRGs from embryonic day 15 (E15) rats of either sex were dissected and trypsinized. DRGs (1.2×10^5 cells) were plated in the center compartment of a Teflon divider (Camp10, Tyler Research; Campenot, 1982) affixed to a p35 culture dish coated with growth factor reduced Matrigel basement membrane (BD Biosciences) 1:45 in DMEM. Cultures were maintained in media consisting of Neurobasal (Invitrogen) with 2% B27 supplement (Invitrogen), 1% penicillin-streptomycin, 1% GlutaMAX (Life Technologies), 0.08% glucose, and 0.3 μM cytosine arabinoside (AraC) at 37° C., 7.5% CO2; BDNF+NGF (PeproTech) were added to the cell body compartment at a concentration of 10 ng/ml and to the axon compartment at a concentration of 100 ng/ml for 2d. On day 3, media was replaced and the AraC was omitted. On day 5, neurotrophins were removed from the cell body compartment and reduced to 1 ng/ml in the axon compartments for 3-5 days. For paclitaxel treatment experiments, 30 μM paclitaxel (Sigma-Aldrich) or vehicle control (0.1% DMSO) was added to either cell body or distal axon compartments on day 7 for 24 hours. For calpain inhibition experiments, 20 μM calpain inhibitor III (VWR) and paclitaxel were added simultaneously to distal axon compartment.
(§3) Western blotting. […] Using NIH ImageJ software, protein levels were quantified and levels of protein were normalized to GAPDH.
(§4) Quantitative reverse transcription-PCR. […] Quantitative real-time RT-PCR was performed using Taqman Gene expression assays (Applied Biosystems) to assess the expression of bclw (Rn00821025_g1), bcl2 (Rn99999125_m1), and bclxL (Rn00580568_g1). […]

[6] = test system: BclxL; assay: as above; assay type: cell-based, rat; conditions: 24 hours paclitaxel to axons; axons or cell bodies
Procedure: as §2, §3, §4

[7] = test system: Bcl2; assay: as above; assay type: cell-based, rat; conditions: 24 hours paclitaxel to axons; axons or cell bodies
Procedure: as §2, §3, §4

Structure (SMILES): CC(=O)O[C@H]1C(=O)[C@@]2(C)[C@H]([C@H](OC(=O)c3ccccc3)[C@]3(O)C[C@H](OC(=O)[C@H](O)[C@@H](NC(=O)c4ccccc4)c4ccccc4)C(C)=C1C3(C)C)[C@]1(OC(C)=O)CO[C@@H]1C[C@@H]2O [paclitaxel]
- thermal pain sensitivity (hot-plate) ([1]; bclw+/+ mice): mild thermal hyperalgesia
- thermal pain sensitivity (hot-plate) ([1]; bclw−/− mice): more severe thermal pain sensitivity
- calpain activity (luminescence) [2]: increased calpain activity in a dose-dependent manner
- motor function (latency to fall) [3]: normal motor function
- intraepidermal nerve fiber number of the hindpaw ([4]; bclw−/− compared to bclw+/+ mice, thick and thin skin): greater reduction in intraepidermal nerve fiber number
- thick skin epidermal innervation ([4]; paclitaxel-treated compared with control mice (Example 12)): decreased thick skin epidermal innervation
- Bclw mRNA and protein levels [5]: reduced Bclw mRNA and protein levels selectively in axons and not in cell bodies
- BclxL mRNA or protein [6]: did not alter
- Bcl2 mRNA or protein [7]: did not alter
